According to patent US10946033B2, “2′-substituted-N6-substituted purine nucleotides for RNA virus treatment” (priority 2016, dated 2021):
Read-outs that look alike come from different tables or passages of the source.

Experiments:
[1] = tested on: Dengue virus type 2 (DENV-2); experiment: microbe, parasite or virus in culture; assay type: cell-based; conditions: read-out: DENV-2 EC50
[2] = tested on: Yellow Fever (YFV); experiment: microbe, parasite or virus in culture; assay type: cell-based, Yellow Fever virus; conditions: read-out: YFV EC50
[3] = Yellow fever virus, BHK-21, 144 h

Compound	EC50 ([1]; Dengue virus, DENV2, 144 h) [µM]	EC50 [2, 3] [µM]	EC50 [1] [µM]	EC50 [2] [µM]
CNc1nc(N)nc2c1ncn2[C@@H]1O[C@H](CO[P@@](=O)(N[C@@H](C)C(=O)OC(C)C)Oc2ccccc2)[C@@H](O)[C@@]1(C)F [Compound 205, isopropyl ((((R,S)-(2R,3R,4R,5R)-5-(2-amino-6-(methylamino)-9H-purin-9-yl)-4-fluoro-3-hydroxy-4-methyltetrahydrofuran-2-yl)methoxy)-phenoxy-phosphoryl)-L-alaninate]	0.8	1.2	–	–
CC1[C@@H](n2cnc3c(N)ncnc32)[C@H](O)[C@H](O)[C@H]1CO (some centres unmarked) [Compound 206]	1.83	2.3	–	–
C#C[C@@]1(F)[C@H](O)[C@@H](COP(=O)(N[C@@H](C)C(=O)OC(C)C)Oc2ccccc2)O[C@H]1n1cnc2c(NC)nc(N)nc21 (stereo partly drawn) [Compound 4, (2S)-Isopropyl 2-(((((2R,3R,4R,5R)-5-(2-amino-6-(methylamino)-9H-purin-9-yl)-4-ethynyl-4-fluoro-3-hydroxytetrahydrofuran-2-yl)methoxy)phenoxy)phosphoryl)-amino) Propanoate]	–	–	612	7
C#C[C@@]1(F)[C@H](O)[C@@H](COP(=O)(N[C@@H](C)C(=O)OC(C)C)Oc2ccccc2)O[C@H]1n1cnc2c(NC3CC3)nc(N)nc21 (stereo partly drawn) [Compound 6, (2S)-Isopropyl 2-(((((2R,3R,4R,5R)-5-(2-amino-6-(cyclopropylamino)-9H-purin-9-yl)-4-ethynyl-4-fluoro-3-hydroxytetrahydrofuran-2-yl)methoxy)phenoxy)phosphoryl)amino) propanoate]	–	–	42	–
CC(C)OC(=O)[C@H](C)N[P@](=O)(OC[C@H]1C(C)[C@@H](n2cnc3c(N)ncnc32)[C@H](O)[C@@H]1O)Oc1ccccc1 (stereo partly drawn) [Compound 204, (2S)-Isopropyl 2-(((S)-(((1R,3R,4S,5R)-3-(6-amino-9H-purin-9-yl)-4,5-dihydroxy-2-methylcyclopentyl)methoxy)(phenoxy)phosphoryl)amino)propanoate]	> 2.1	> 2.1	–	–
C#C[C@@]1(F)[C@H](O)[C@@H](COP(=O)(N[C@@H](C)C(=O)OC(C)C)Oc2ccccc2)O[C@H]1n1cnc2c(N(C)C)nc(N)nc21 (mixture of isomers) [Compound 2, (2S)-Isopropyl 2-(((((2R,3R,4R,5R)-5-(2-amino-6-(dimethylamino)-9H-purin-9-yl)-4-ethynyl-4-fluoro-3-hydroxytetrahydrofuran-2-yl)methoxy)(phenoxy)phosphoryl)amino) propanoate]	72.5	12.6	–	–
